{"source": "patent US20110166112A1", "about": "“METHOD FOR STIMULATING PLATELET PRODUCTION” (Eisai, Inc., priority 2009, published 2011)", "test_system": "subjects with chronic idiopathic thrombocytopenic purpura (ITP)", "assay": "Phase 2 28-day study of E5501 tablets: safety and tolerability (TEAEs, discontinuations)", "assay_type": "in vivo, human", "details": "for Discontinued study, primary reason Adverse Event or SAE / Discontinued study, primary reason Platelet Count Increase to ≧500 K/mm^3: Pharmacokinetic Population; for Abdominal pain / Diarrhoea / Ecchymosis / Epistaxis / Fatigue / Headache / Migraine / Nausea / Pain in extremity / Petechiae / Platelet count increased / Upper respiratory tract infection / Vomiting: TEAE", "protocol": "This was a phase 2, multi-center, double-blind, randomized, placebo-controlled, dose-ranging, parallel group study of E5501 tablets, used in the treatment of subjects with chronic idiopathic thrombocytopenic purpura (ITP) refractory to or relapsed after at least one prior ITP therapy. Subjects who met all entry criteria were randomly assigned in a 3:3:3:3:1 ratio to one of the following five treatment groups dosed daily for 28 days: 1) E5501 2.5 mg; 2) E5501 5 mg; 3) E5501 10 mg; 4) E5501 20 mg; or 5) placebo (PBO). Each E5501 dosing group consisted of 15 subjects while the PBO group consisted of 5 subjects. All study subjects were evaluated weekly (days 7, 14, 21 and 28) for safety and efficacy while receiving study treatment, with a final assessment for safety and effectiveness performed 4 weeks after the last study dose (day 56) unless the subject entered the follow-on study. Platelet counts were also measured on day 3 and day 5.\nThe safety and tolerability parameters included adverse events, clinical laboratory parameters, study drug exposure, vital electrocardiograms, concomitant medications, serum pregnancy tests for women of childbearing potential and physical examinations including height, weight, general appearance and recording of vital signs.\nThe populations of interest were defined as follows: • The randomized population included all subjects who were randomized into the study. • The safety population included all randomized subjects who receive at least one dose of study drug and have at least one safety assessment. • The pharmacokinetic (PK) population included all subjects who provided blood sample for analysis of E5501. A subject was included in this population if the subject had at least one blood draw for PK assessment. • The full analysis set (FAS) included all subjects who provided adequate data to derive at least one efficacy assessment. […] The day 28 visit window was defined to be from day 25, to last dose day+1, inclusively; • Other major protocol violations that impacted the platelet endpoint evaluation. Results from Planned Analyses\nSubject Disposition. Sixty four subjects were randomly assigned to treatment in this study. All treated subjects provided adequate efficacy data and therefore were included in the FAS population. The number and percentage of subjects who completed treatment or discontinued prematurely were summarized by treatment groups as shown in Table 1. In addition, the number and percentage of subjects who withdrew were summarized by reason for discontinuation by treatment group. The majority (>85%) of subjects completed the study across all dose groups for the FAS, randomized, and safety populations. Seven subjects who discontinued the study early all were from E5501 dose groups: two subjects in each of 2.5, 10 and 20 mg dose groups and one subject in the 5 mg dose group."}
{"compound": "O=C(Nc1nc(-c2cc(Cl)cs2)c(N2CCN(C3CCCCC3)CC2)s1)c1cnc(N2CCC(C(=O)O)CC2)c(Cl)c1", "note": "[E5501, 1-(3-chloro-5-{[4-(4-chlorothiophen-2-yl)-5-(4-cyclohexylpiperazin-1-yl)thiazol-2-yl]carbamoyl}pyridine-2-yl)piperidine-4-carboxylic acid]", "values": [{"measurement": "diarrhea, nausea and vomiting, total events", "value": 12, "unit": "events"}, {"measurement": "subjects whose platelet count decreased to below that of baseline upon discontinuation of E5501", "value": 3, "unit": "subjects"}, {"measurement": "subjects with diarrhea, nausea and vomiting events", "value": 7, "unit": "subjects"}, {"measurement": "tolerability and safety profile", "value": "well tolerated and had a favorable safety profile"}, {"measurement": "Death", "setting": "2.5 mg", "value": "0 n (%)"}, {"measurement": "Serious TEAEs (Any Serious TEAE)", "setting": "2.5 mg", "value": "2 (13.3) n (%)"}, {"measurement": "TEAE Leading to Study Treatment Dose Interruption", "setting": "2.5 mg", "value": "0 n (%)"}, {"measurement": "TEAE Leading to Study Treatment Withdrawal", "setting": "2.5 mg", "value": "0 n (%)"}, {"measurement": "TEAEs", "setting": "2.5 mg", "value": "12 (80.0) n (%)"}, {"measurement": "Treatment-Related Serious TEAEs", "setting": "2.5 mg", "value": "0 n (%)"}, {"measurement": "Treatment-Related TEAEs", "setting": "2.5 mg", "value": "6 (40.0) n (%)"}, {"measurement": "number of serious TEAEs", "setting": "2.5 mg", "value": 2}, {"measurement": "Death", "setting": "5 mg", "value": "0 n (%)"}, {"measurement": "Serious TEAEs (Any Serious TEAE)", "setting": "5 mg", "value": "0 n (%)"}, {"measurement": "TEAE Leading to Study Treatment Dose Interruption", "setting": "5 mg", "value": "1 (6.7) n (%)"}, {"measurement": "TEAE Leading to Study Treatment Withdrawal", "setting": "5 mg", "value": "1 (6.7) n (%)"}, {"measurement": "TEAEs", "setting": "5 mg", "value": "13 (86.7) n (%)"}, {"measurement": "Treatment-Related Serious TEAEs", "setting": "5 mg", "value": "0 n (%)"}, {"measurement": "Treatment-Related TEAEs", "setting": "5 mg", "value": "11 (73.3) n (%)"}, {"measurement": "Death", "setting": "10 mg", "value": "0 n (%)"}, {"measurement": "Serious TEAEs (Any Serious TEAE)", "setting": "10 mg", "value": "1 (7.1) n (%)"}, {"measurement": "TEAE Leading to Study Treatment Dose Interruption", "setting": "10 mg", "value": "0 n (%)"}, {"measurement": "TEAE Leading to Study Treatment Withdrawal", "setting": "10 mg", "value": "1 (7.1) n (%)"}, {"measurement": "TEAEs", "setting": "10 mg", "value": "11 (78.6) n (%)"}, {"measurement": "Treatment-Related Serious TEAEs", "setting": "10 mg", "value": "1 (7.1) n (%)"}, {"measurement": "Treatment-Related TEAEs", "setting": "10 mg", "value": "8 (57.1) n (%)"}, {"measurement": "number of serious TEAEs", "setting": "10 mg", "value": 4}, {"measurement": "Death", "setting": "20 mg", "value": "0 n (%)"}, {"measurement": "Serious TEAEs (Any Serious TEAE)", "setting": "20 mg", "value": "0 n (%)"}, {"measurement": "TEAE Leading to Study Treatment Dose Interruption", "setting": "20 mg", "value": "2 (13.3) n (%)"}, {"measurement": "TEAE Leading to Study Treatment Withdrawal", "setting": "20 mg", "value": "2 (13.3) n (%)"}, {"measurement": "TEAEs", "setting": "20 mg", "value": "14 (93.3) n (%)"}, {"measurement": "Treatment-Related Serious TEAEs", "setting": "20 mg", "value": "0 n (%)"}, {"measurement": "Treatment-Related TEAEs", "setting": "20 mg", "value": "10 (66.7) n (%)"}, {"measurement": "subjects who withdrew due to excessively increased platelet counts (≧500,000/mm^3)", "setting": "20 mg", "value": 2, "unit": "subjects"}, {"measurement": "Discontinued study, primary reason Adverse Event or SAE", "setting": "2.5 mg", "value": "0 n (%)"}, {"measurement": "Discontinued study, primary reason Platelet Count Increase to ≧500 K/mm^3", "setting": "2.5 mg", "value": "0 n (%)"}, {"measurement": "Discontinued study, primary reason Adverse Event or SAE", "setting": "5 mg", "value": "1 (6.7) n (%)"}, {"measurement": "Discontinued study, primary reason Platelet Count Increase to ≧500 K/mm^3", "setting": "5 mg", "value": "0 n (%)"}, {"measurement": "Discontinued study, primary reason Adverse Event or SAE", "setting": "10 mg", "value": "1 (7.1) n (%)"}, {"measurement": "Discontinued study, primary reason Platelet Count Increase to ≧500 K/mm^3", "setting": "10 mg", "value": "0 n (%)"}, {"measurement": "Discontinued study, primary reason Adverse Event or SAE", "setting": "20 mg", "value": "0 n (%)"}, {"measurement": "Discontinued study, primary reason Platelet Count Increase to ≧500 K/mm^3", "setting": "20 mg", "value": "2 (13.3) n (%)"}, {"measurement": "Discontinued study, primary reason Adverse Event or SAE", "setting": "Total E5501", "value": "2 (3.4) n (%)"}, {"measurement": "Discontinued study, primary reason Platelet Count Increase to ≧500 K/mm^3", "setting": "Total E5501", "value": "2 (3.4) n (%)"}, {"measurement": "Abdominal pain", "setting": "2.5 mg", "value": "0 n (%)"}, {"measurement": "Diarrhoea", "setting": "2.5 mg", "value": "1 (6.7) n (%)"}, {"measurement": "Ecchymosis", "setting": "2.5 mg", "value": "0 n (%)"}, {"measurement": "Epistaxis", "setting": "2.5 mg", "value": "4 (26.7) n (%)"}, {"measurement": "Fatigue", "setting": "2.5 mg", "value": "2 (13.3) n (%)"}, {"measurement": "Headache", "setting": "2.5 mg", "value": "4 (26.7) n (%)"}, {"measurement": "Migraine", "setting": "2.5 mg", "value": "0 n (%)"}, {"measurement": "Nausea", "setting": "2.5 mg", "value": "0 n (%)"}, {"measurement": "Pain in extremity", "setting": "2.5 mg", "value": "0 n (%)"}, {"measurement": "Petechiae", "setting": "2.5 mg", "value": "0 n (%)"}, {"measurement": "Platelet count increased", "setting": "2.5 mg", "value": "0 n (%)"}, {"measurement": "Upper respiratory tract infection", "setting": "2.5 mg", "value": "1 (6.7) n (%)"}, {"measurement": "Vomiting", "setting": "2.5 mg", "value": "1 (6.7) n (%)"}, {"measurement": "Abdominal pain", "setting": "5 mg", "value": "2 (13.3) n (%)"}, {"measurement": "Diarrhoea", "setting": "5 mg", "value": "2 (13.3) n (%)"}, {"measurement": "Ecchymosis", "setting": "5 mg", "value": "0 n (%)"}, {"measurement": "Epistaxis", "setting": "5 mg", "value": "2 (13.3) n (%)"}, {"measurement": "Fatigue", "setting": "5 mg", "value": "4 (26.7) n (%)"}, {"measurement": "Headache", "setting": "5 mg", "value": "3 (20.0) n (%)"}, {"measurement": "Migraine", "setting": "5 mg", "value": "0 n (%)"}, {"measurement": "Nausea", "setting": "5 mg", "value": "0 n (%)"}, {"measurement": "Pain in extremity", "setting": "5 mg", "value": "2 (13.3) n (%)"}, {"measurement": "Petechiae", "setting": "5 mg", "value": "0 n (%)"}, {"measurement": "Platelet count increased", "setting": "5 mg", "value": "0 n (%)"}, {"measurement": "Upper respiratory tract infection", "setting": "5 mg", "value": "0 n (%)"}, {"measurement": "Vomiting", "setting": "5 mg", "value": "0 n (%)"}, {"measurement": "Abdominal pain", "setting": "10 mg", "value": "0 n (%)"}, {"measurement": "Diarrhoea", "setting": "10 mg", "value": "0 n (%)"}, {"measurement": "Ecchymosis", "setting": "10 mg", "value": "3 (21.4) n (%)"}, {"measurement": "Epistaxis", "setting": "10 mg", "value": "1 (7.1) n (%)"}, {"measurement": "Fatigue", "setting": "10 mg", "value": "4 (28.6) n (%)"}, {"measurement": "Headache", "setting": "10 mg", "value": "1 (7.1) n (%)"}, {"measurement": "Migraine", "setting": "10 mg", "value": "0 n (%)"}, {"measurement": "Nausea", "setting": "10 mg", "value": "2 (14.3) n (%)"}, {"measurement": "Pain in extremity", "setting": "10 mg", "value": "0 n (%)"}, {"measurement": "Petechiae", "setting": "10 mg", "value": "0 n (%)"}, {"measurement": "Platelet count increased", "setting": "10 mg", "value": "0 n (%)"}, {"measurement": "Upper respiratory tract infection", "setting": "10 mg", "value": "2 (14.3) n (%)"}, {"measurement": "Vomiting", "setting": "10 mg", "value": "1 (7.1) n (%)"}, {"measurement": "Abdominal pain", "setting": "20 mg", "value": "0 n (%)"}, {"measurement": "Diarrhoea", "setting": "20 mg", "value": "2 (13.3) n (%)"}, {"measurement": "Ecchymosis", "setting": "20 mg", "value": "0 n (%)"}, {"measurement": "Epistaxis", "setting": "20 mg", "value": "2 (13.3) n (%)"}, {"measurement": "Fatigue", "setting": "20 mg", "value": "2 (13.3) n (%)"}, {"measurement": "Headache", "setting": "20 mg", "value": "4 (26.7) n (%)"}, {"measurement": "Migraine", "setting": "20 mg", "value": "2 (13.3) n (%)"}, {"measurement": "Nausea", "setting": "20 mg", "value": "1 (6.7) n (%)"}, {"measurement": "Pain in extremity", "setting": "20 mg", "value": "1 (6.7) n (%)"}, {"measurement": "Petechiae", "setting": "20 mg", "value": "2 (13.3) n (%)"}, {"measurement": "Platelet count increased", "setting": "20 mg", "value": "4 (26.7) n (%)"}, {"measurement": "Upper respiratory tract infection", "setting": "20 mg", "value": "0 n (%)"}, {"measurement": "Vomiting", "setting": "20 mg", "value": "2 (13.3) n (%)"}, {"measurement": "Abdominal pain", "setting": "Total E5501", "value": "2 (3.4) n (%)"}]}
